Here are results for two compounds from patent US20130084335A1, “IVABRADINE-CONTAINING PHARMACEUTICAL COMPOSITION” (ratiopharm GmbH, priority 2010, published 2013).

Series [1] can be described thus: Particle size by laser diffractometry. It counts as physicochemical. The protocol:
The term “particle size” according to the present invention relates to the maximum diameter of the equivalent product assuming spherical opaque particles showing the same light scattering pattern and the same diffraction as the active substance particles. According to the invention the particle size is determined by means of laser light diffraction. The determination of the size distribution results from the analysis of the diffraction pattern that is obtained if particles are exposed to a monochromatic light beam. The particles refract the light with small particles refracting the light in a greater angle than large particles. The refracted light is measured by a number of photo detectors arranged in different angles. On the other hand, the light spectra of the […] have to be recorded by light-sensitive detectors in greater angles over the laser beam. Large particles result in greater intensity maxima with small angles, small particles to weaker intensity maxima with greater angles. Thus, in the laser light diffraction the pattern resulting from the interaction of the light with the particles is used for the determination of the particle size.
According to the invention the particle size is determined by means of laser diffractometry. For that, a Mastersizer 2000 by Malvern Instruments having the corresponding sample dispersing unit Hydro S is used. The wet measurement (2500 rpm, ultrasound 10-20 min., shading 5 to 20%) takes place in a dispersion of sunflower oil with the particle spacing in the dispersion being about 3-5 times greater than the particle diameter.
Moreover, the Mie theory defines the secondary scattering caused by the refraction of the light on small particles, as in the international rules of the laser diffraction measurement. (ISO 13320)
The determination of the particle size for particles D50 smaller than 5.0 μm is carried out according to the Mie method and for particles D50 greater than 5.0 μm according to the Fraunhofer method.

The nature of series [2]: Stability at different temperatures and humidities in open or closed containers (polymorphic form). The format is physicochemical. The settings on record: for Stability, summary in words: various conditions, phase transition in particular in open containers. The protocol: XRD samples were analysed on a Bruker-AXS D8 Advance powder X-Ray diffractometer. The measurement conditions were as follows: • Measurement in Bragg-Brentano-Geometry on vertical goniometer (reflection, theta/theta, 435 mm measurement circle diameter) • with sample rotation (30 rpm) on 9 position sample stage • Radiation: Cu Kα1 (1.5406 Å), Tube (Siemens FLCu2K), power 40 kV/40 mA • Detector: position sensitive detector VANTEC-1 • 3° capture angle (2theta), • Anti scatter slit 6.17 mm • Detector slit 10.39 mm • 4° soller slit, • primary beam stop (<2° 2theta) • Monochromator: None • Second β filter: Ni filter 0.1 mm (0.5%) • Start angle: 2° • End Angle: 55° • Measurement time: 11 min • Step: 0.016° 2Theta • Software: EVA (Bruker-AXS, Karlsruhe).
The stability of ivabradine adipate in comparison to ivabradine hydrochloride form I was investigated at different temperatures and humidities in open or closed containers for different storage times.

On to `COc1cc2c(cc1OC)CC(=O)N(CCCN(C)C[C@H]1Cc3cc(OC)c(OC)cc31)CC2.Cl` [Ivabradine HCl form I], for which the “Particle size D50” value in series [1] was 19.10 μm. Besides, the “Particle size D90” value in series [1] is 44.11 μm. In addition, the “Stability (crystal form after storage)” value in series [2] (25° C./60%, closed, 33 d) is given as “unchanged”; in series [2] (25° C./60%, open, 33 d), “β +”; in series [2] (30° C./65%, closed, 33 d), “unchanged”; in series [2] (30° C./65%, open, 33 d), “β”; in series [2] (40° C./75%, closed, 33 d), “unchanged”; in series [2] (40° C./75%, open, 33 d) it was “β”. In addition, the “Stability, summary in words” value in series [2] is given as “undergoes phase transition into ivabradine HCl, form beta, or form d”.
With `COc1cc2c(cc1OC)CC(=O)N(CCCN(C)C[C@H]1Cc3cc(OC)c(OC)cc31)CC2.O=C(O)CCCCC(=O)O` [Ivabradine adipate], the “Particle size D50” value in series [1] turned out to be 18.35 μm. Besides, the “Particle size D90” value in series [1] worked out at 52.71 μm. Also, the “Stability (crystal form after storage)” value in series [2] (25° C./60%, closed, 57 d) is on record as “unchanged”; in series [2] (25° C./60%, open, 57 d), “unchanged”; in series [2] (30° C./65%, closed, 57 d), “unchanged”; in series [2] (30° C./65%, open, 57 d), “unchanged”; in series [2] (40° C./75%, closed, 57 d), “unchanged”; in series [2] (40° C./75%, open, 57 d) it was “unchanged”. Also, the “Stability, summary in words” value in series [2] is “stable at various conditions”.
